Measured values from US12533428B2, “Multimodal fluorine-CY3/5/7-DOTA-hapten compositions, diagnostics, fluorescence guided surgery and radioimmunotherapy” (Memorial Sloan Kettering Cancer Center, priority 2019, dated 2026).
Each block holds one compound with its values, some of them ahead of it.

How the values were obtained:
[1] = tested on: GD2-expressing IMR32Luc neuroblastoma cells; assay: Cell binding with anti-tumor/anti-DOTA BsAb, FACS; format: cell-based
Procedure: The cell binding activity of [F]Cy3D (Compound 6) was assayed with an anti-tumor/anti-DOTA bispecific antibody (BsAb). To detect binding of Compound 6 to GD2-expressing IMR32Luc neuroblastoma cells using an anti-GD2/anti-DOTA BsAb or a control BsAb (anti-HER2/anti-DOTA), cells were incubated with 1 μg of BsAb or PBS, washed and then incubated with several versions of Compound 6: (1) Compound 6, (2) [^175Lu]Pre-Compound 6 where ^175Lu was added before a mock ^19F isotope exchange, (3) [^19F]Pre-[^175Lu]Compound 6, where a mock ^19F isotope exchange was done before ^175Lu was added, and (4) [^175Lu]-Compound 6 where ^175Lu was directly added to Compound 6 without isotope exchange. Cells were analyzed by FACS or fluorescent microscopy.

IMR32luc cells = assay: Cell binding with BsAb, fluorescent microscopy; format: cell-based; details: IMR32luc cells incubated with anti-GD2/anti-DOTA BsAb
Procedure: The cell binding of Compound 6 and [^175Lu]-Compound 6 variants was then studied using fluorescent microscopy. IMR32luc cells were incubated with Anti-GD2/Anti-DOTA BsAb, a control anti-DOTA BsAb or no BsAb, followed by incubation with Compound 6 or [^175Lu]-Compound 6 variants. […] Binding was not detected when a control anti-DOTA BsAb was added (FIG. 14) or no BsAb was added (FIG. 15).

[2] = tested on: GPA33-expressing human colorectal cancer SW1222 subcutaneous xenograft; assay: Ex vivo biodistribution of anti-GPA33 pretargeted [^18F]CyD; format: in vivo, Athymic nude mice; details: 2 h p.i.
Procedure: (§1) In vivo pretargeting of [^18F]CyD for PET imaging of human colorectal cancer xenograft (SW1222 human carcinoma cell line). Athymic nude mice bearing the GPA33-expressing human colorectal cancer SW1222 subcutaneous xenograft were used as a model for anti-GPA33 DOTA-PRIT. The groups were intravenously (i.v.) injected with BsAb huA33-C825 (250 μg, 1.19 nmol), followed 24 h later with i.v. injection of dendron CA ([…], 2.76 nmol; (glycodendrimer-based CA α-thio-N-acetylgalactosamine-16-DOTA-Y^3; see WO2020014386)) and after an additional 4 h, i.v. injection of [^18F]CyD (1.295 MBq (35 μCi), 0.23 nmol). Non-invasive PET/CT imaging was performed using a preclinical Inveon PET/CT system at ˜1 h post-injection (p.i.) of [^18F]CyD (see FIG. 23), followed with ex vivo biodistribution assay of radioactivity.

[3] = tested on: GPA33-expressing human colorectal cancer SW1222 subcutaneous xenograft; assay: PET/CT imaging of pretargeted [^18F]CyD; format: in vivo, Athymic nude mice; details: approximately 1 h after i.v. injection (1.295 MBq, 0.23 nmol), pretargeted tumor-bearing mice
Procedure: as §1

[4] = tested on: GPA33-expressing SW1222 colon cancer cells; assay: Binding with anti-GPA33/anti-DOTA BsAb, FACS flow cytometry (MFI); format: cell-based, human
Procedure: Next [^175Lu]-Compound 6 binding to GPA33-expressing SW1222 colon cancer cells was investigated. SW1222 cells were incubated with 25, 2.5 or 0.25 pmol of anti-GPA33/Anti-DOTA BsAb, or a control (anti-GD2/anti-DOTA) BsAb, washed and mixed with 50, 5 or 0.5 pmol of [^175Lu]-Compound 6.

[5] = tested on: subcutaneous GD2-expressing tumor (IMR32Luc); assay: ^18F-PET imaging of GD2-positive subcutaneous tumor; format: in vivo; details: IMR32Luc tumor mouse, anti-GD2/anti-DOTA BsAb 24 h and clearing agent 4 h before PET; image after 2 hours
Procedure: A pilot PET study using ([^175Lu][^18F]-Compound 6) was carried out. For that purpose, a mouse bearing a subcutaneous GD2-expressing tumor (IMR32Luc) was pretreated (24 hours pre PET) with an anti-GD2/anti-DOTA BsAb and followed with DOTA-dendrimer clearing agent (glycodendrimer-based CA α-thio-N-acetylgalactosamine-16-DOTA-Y^3; see WO2020014386) (4 hours before PET) and [^175Lu][^18F]-Compound 6. After 2 hours the image was collected by a PET scan. […] Moreover, the small size of [^175Lu][^18F]-Compound 6 reduced background activity dramatically in a short amount of time.

Structure (SMILES): CC1(C)C(/C=C/C=C2/N(CCCCCC(=O)Nc3ccc(CC4CN(CC(=O)O)CCN(CC(=O)O)CCN(CC(=O)O)CCN4CC(=O)O)cc3)c3ccc(S(=O)(=O)[O-])cc3C2(C)C)=[N+](CCCCCC(=O)NCC[N+](C)(C)C[B-](F)(F)F)c2ccc(S(=O)(=O)O)cc21 (centres unmarked) [Compound 6, [F]Cy3D]
Binding to cells (fluorescence, FACS) ([1]; IMR32Luc cells incubated with 1 μg anti-GD2/anti-DOTA BsAb): shows no fluorescence | Binding to cells (fluorescence, FACS) ([1]; IMR32Luc cells, negative controls: no BsAb or control BsAb (anti-HER2/anti-DOTA)): no binding | Binding to cells (fluorescent microscopy) (IMR32luc cells): did not show binding

Bone uptake ([2]; SW1222-tumor bearing mice): 1.65±0.48 % ID/g | Large intestine uptake ([2]; SW1222-tumor bearing mice): 8.41±2.62 % ID/g | Blood uptake ([2]; n=3, SW1222-tumor bearing mice): 0.17±0.12 % ID/g | Kidney uptake ([2]; n=3, SW1222-tumor bearing mice): 0.87±0.11 % ID/g | Tumor Uptake ([2]; n=3, SW1222-tumor bearing mice): 5.14±1.24 % ID/g | T:NT for blood ([2]; tumor to blood): 31±13 | T:NT for kidney ([2]; tumor to kidney): 6±1
Structure (SMILES): CC1(C)C(=C/C=C/C2=[N+](CCCCCC(=O)NCC[N+](C)(C)C[B-](F)(F)[18F])c3ccc(S(=O)(=O)[O-])cc3C2(C)C)N(CCCCCC(=O)Nc2ccc(CC3CN(CC(=O)[O-])CCN(CC(=O)[O-])CCN(CC(=O)[O-])CCN3CC(=O)[O-])cc2)c2ccc(S(=O)(=O)[O-])cc21.[175Lu+3] (centres unmarked) [[^18F]CyD]
Activity in the tumor by PET/CT [3]: high activity is present in the tumor

Structure (SMILES): CC1(C)C(=CC=CC2=[N+](CCCCCC(=O)NCC[N+](C)(C)C[B-](F)(F)F)c3ccc(S(=O)(=O)[O-])cc3C2(C)C)N(CCCCCC(=O)Nc2ccc(CC3CN(CC(=O)[O-])CCN(CC(=O)[O-])CCN(CC(=O)[O-])CCN3CC(=O)[O-])cc2)c2ccc(S(=O)(=O)[O-])cc21.[175Lu+3] (centres unmarked) [[^175Lu]-Compound 6, [F]Cy3D[^175Lu]]
Mean fluorescence (MFI) of binding ([4]; SW1222 cells, 25, 2.5 or 0.25 pmol anti-GPA33/anti-DOTA BsAb, 50, 5 or 0.5 pmol probe): proportionate to the amount | Binding to cells (FACS) ([4]; SW1222 cells, control anti-GD2/anti-DOTA BsAb): no binding

Structure (SMILES): CC1(C)C(=CC=CC2=[N+](CCCCCC(=O)NCC[N+](C)(C)C[B-](F)(F)[18F])c3ccc(S(=O)(=O)[O-])cc3C2(C)C)N(CCCCCC(=O)Nc2ccc(CC3CN(CC(=O)[O-])CCN(CC(=O)[O-])CCN(CC(=O)[O-])CCN3CC(=O)[O-])cc2)c2ccc(S(=O)(=O)[O-])cc21.[175Lu+3] (centres unmarked) [[^175Lu][^18F]-Compound 6, [^18F]Cy3D[^175Lu]]
Tumor targeting by PET scan [5]: specifically targeted to the BsAb-treated tumor
